One experiment deals with T1, AtMAT2 (Arabidopsis thaliana, UniProt P17562).
T1 sequence (P17562 1-392): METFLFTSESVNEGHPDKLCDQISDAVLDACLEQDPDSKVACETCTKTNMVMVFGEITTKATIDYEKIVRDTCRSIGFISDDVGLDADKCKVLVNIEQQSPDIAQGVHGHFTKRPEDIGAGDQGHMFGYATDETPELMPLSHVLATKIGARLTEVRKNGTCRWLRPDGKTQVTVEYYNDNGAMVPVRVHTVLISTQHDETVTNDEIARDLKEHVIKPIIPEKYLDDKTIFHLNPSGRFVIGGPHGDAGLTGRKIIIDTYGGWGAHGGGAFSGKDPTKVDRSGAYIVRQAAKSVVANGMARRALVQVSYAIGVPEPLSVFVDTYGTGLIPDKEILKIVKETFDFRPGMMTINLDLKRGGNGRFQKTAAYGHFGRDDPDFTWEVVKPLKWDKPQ
In words: X-ray crystal structure. The format is binding.

A further experiment deals with T2, AtMAT1 (Arabidopsis thaliana, UniProt P23686).
T2 sequence (P23686 1-393): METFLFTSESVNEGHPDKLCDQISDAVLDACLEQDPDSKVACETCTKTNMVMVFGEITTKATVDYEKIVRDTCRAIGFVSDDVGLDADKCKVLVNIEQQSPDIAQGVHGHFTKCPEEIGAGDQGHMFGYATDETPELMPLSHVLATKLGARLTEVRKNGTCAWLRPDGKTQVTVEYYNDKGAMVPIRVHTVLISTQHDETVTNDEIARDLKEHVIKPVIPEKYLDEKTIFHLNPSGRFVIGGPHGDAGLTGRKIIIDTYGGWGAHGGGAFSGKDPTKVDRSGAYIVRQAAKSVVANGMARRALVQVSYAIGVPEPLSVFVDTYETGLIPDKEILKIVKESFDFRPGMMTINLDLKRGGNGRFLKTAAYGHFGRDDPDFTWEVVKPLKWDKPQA
In words: isothermal titration calorimetry. Type of experiment: binding.

From paper PMC8456715 (International journal of biological macromolecules, 2020) come the findings set out here.

On to `Nc1ncnc2c1ncn2[C@@H]1O[C@H](COP(=O)(O)CP(=O)(O)OP(=O)(O)O)[C@@H](O)[C@H]1O` [AMPCPP], for which the “X-ray crystal structure (2.00 Å, soaking)” value at AtMAT2 was “inside the catalytic site both, precatalytic Met and the ATP analogue, AMPCPP, revealed the exact pre-reaction state of the enzyme”.

With `NCCCCNCCCN` [spermidine], binding at AtMAT1 was put at a Kd of 654 nM.
